Experimental findings from US6770738B1, “Higher order structure and binding of peptide nucleic acids” (ISIS Pharmaceuticals, Inc., priority 1992, dated 2004) are described below.

Assay [1] deals with pT9CT9C plasmid linearized by CfrlOI. As to the kind of experiment: Site-specific S1 nuclease digestion of plasmid with two PNA sites complexed with PNA. Type of assay: biochemical. To be noted: 30 units S1 nuclease; target sites are for T5CT4. The text has this:
was cloned into the Sal1 site of the pUC19 plasmid. This plasmid, which contained two binding sites for PNA H-T5CT4-LysNH2 (SEQ ID NO:6) separated by six base pairs, was designated pT9CT9C. Strand displacement in the two T5CT4 sites led to opening of the entire region, including the sequence GTCGAC/GACGAC, providing a substrate for the S1 nuclease in both strands. As control, a pT9C-5 plasmid was used, which carried only one T5CT4 (SEQ ID NO:6) insert cloned into the SalI site of the pUC19 plasmid.
cloned in the Sal1 site of the pUC19 polylinker. The pT9C-5 plasmid carried the single insert A5GA4/CT5 (SEQ ID NO:4) cloned in the same site. The PNA-DNA complexes were prepared as described in Example 2 with the only difference being the duration of the incubation was 2 hours. Digestion by 30 units of the S1 nuclease was performed in the same buffer as described in Example 2 with two exceptions, lanes 2 and 4. In lane 2, 15 units of the enzyme were used, whereas in lane 4 200 mM NaCl and 1 mM of ZnSO4 were added to the buffer. Lane 1: the reference band obtained by digestion with the BamHI restriction enzyme of the pUC 19 plasmid linearized by the CfrlOI restriction enzyme. Lanes 2-4 site-specific digestion by the S1 nuclease of the linearized pT9C plasmid complexed with PNA H-T5CT4-LysNH2 (SEQ ID NO:6). Lanes 5-7: various controls. Lane 8: the same experiment as in lane 3, but using PNA T10 (SEQ ID NO:2) instead of T4CT5 (SEQ ID NO:8). Lane 9: the same experiment as in lane 3, but using PNA T2CT2CT4 (SEQ ID NO:1) instead of T4CT5 (SEQ ID NO:8). Lane 10: the same experiment as in lane 3, but using the pT9C-5 plasmid instead of the pT9C. In the header PNA T5CT4 (SEQ ID NO:6) is labelled as 1, T10 (SEQ ID NO:2) as 2 and T2CT2CT4 (SEQ ID NO:1) as 3.
The bands observed by gel electrophoresis have the same position and width as the band created by the BamHI restriction enzyme. […] Moreover, under the much milder S1 nuclease treatment necessary to generate the data for the pT9CT9C, the yield of double-stranded breaks in the pT9C-5 plasmid was extremely low (lane 10).

Assay [2] relates to A98/T98 insert of pA98 plasmid. As to the kind of experiment: Electron microscopy of PNA-DNA complex. The class given is binding. As for the experimental part:
A pA98 plasmid containing an A98/T98 (SEQ ID NO:42) insert in the PstI site of the polylinker of a pUC 19 plasmid was used. 0.1 μg of the pA98 plasmid linearized by the Cfr1OI I restriction enzyme was incubated with 0.15 μg of PNA H-T10-LysNH2 (SEQ ID NO:2) at 37 °C. for 3 hours in 10 μL of the TE buffer (10 mM of Tris-HCl, 1 mM of Na3EDTA, pH 8.0). The complex was diluted with buffer containing 10 mM of Tris-HCl, 10 mM of NaCl, pH 7.5 to the final DNA concentration of 0.2-0.5 μg/mL and absorbed to the surface of glow discharged in tripropylamine carbon grid for 2 minutes as described in Duochet, J., Ultrastruct. Res., 1971 35, 147-167. The grid was stained in 0.1-0.5 % water solution of uranyl acetate for 10-15 sec and dried. The sample was shadowed with Pt/C (95/5) and studied in a Philips 400 electron microscope at accelerating voltage of 40 kV. The length of the DNA molecules were measured and a histogram was plotted as described by A. V. Kurakin in Micron Microscopica Acta, 22,213-221 (1991). The length of unwound region was measured by its thicker strand, for which the number of base pairs per unit length was assumed to be the same as for the DNA duplex. For analysis by use of a histogram, the molecules were oriented in such a manner that the left boundary of the loop was closer to the end of the molecule.

Assay [3] has as its system T3 RNA polymerase transcription of pA10KS (d(A10) target). As to the kind of experiment: Inhibition of RNA polymerase T3 transcription elongation by PNA. Type of assay: biochemical. To be noted: PNA 1 or 10 uM bound to the template strand. On the procedure: The complex, between PNA T10-LysNH2 (SEQ ID NO:2) (1 or 10 um) and pAIOKS (pBluescriptKS^+ in which the d(A10) target is cloned into the BamHl site, analogous to pTlO) (100 ng) cleaved with restriction enzyme PyuII, XbaI, or BamHl, was formed by incubation in 14 μL 10 m Tris-HCl, 1 mM EDTA, (pH 7.4) buffer for 60 min. at 37° C. Subsequently 4 μL 5× concentrated polymerase buffer (0.2 M Tris-HCl, pH 8.0, 125 mM NaCl, 40 mM MgCl2, 10 mM spermidine) was added together with 15 U T3 RNA polymerase and ATP (10 mM), CTP (10 mM), GTP (10 mM), UTP (1 mM) and ^32P-UTP (0.1 μCi), and the incubation was continued for 10 min. Following ethanol precipitation, the RNA was analyzed by electrophoresis in sequencing gels and the radiolabeled bands were visualized by autoradiography using intensifying screens. The results are shown in FIG. 18: Lane 1: pTIOKS was cut with PyuH and no PNA was present. Lane 2: pTIOKS was cut with BamHl, and no PNA was present. Lane 3: pTIOKS was cut with XbaI, no PNA. Lane 4: as in lane 1 but in the presence of PNA (1 uM). Lane 5: as lane 3+PNA (1 uM). Lane 6: as lane 1+PNA (10 uM). Lane 7: as lane 3+PNA (10 uM).
The complex between the desired PNA and the desired DNA (100 ng) cleaved with the desired restriction enzyme was formed by incubation in 14 μL 10 mM Tris-HCl, 1 mM EDTA, (pH 7.4) buffer for 60 min at 37° C. Subsequently 4 μL 5× concentrated polymerase buffer (0.2 M Tris-HCl, pH 8.0, 125 mM NaCl, 40 mM MgCl2 10 mM spermidine) was added together with 15 U of RNA polymerase and ATP (10 μM), CTP (10 mM), UTP (1 mM) and ^32P-UTP (0.1 μCi). The incubation was continued for 10 min. Following ethanol precipitation, the RNA was analyzed by electrophoresis in polyacrylamide sequencing gels, and radialabeled RNA bands were visualized by autoradiography (using Agfa Curix RPI X-ray films and intensifying screens). Quantitation was performed by densitometric scanning using a Molecular Dynamics laser scanner and the ImageQuant™ software.
In this example transcription arrest with PNAs shorter than 10 mers was examined. […]

With H-T10LysNH2 [PNA H-T10-LysNH2], the “S1 nuclease digestion of pT9CT9C plasmid complexed with PNA” value in assay [1] is “very weak digestion”. Further, the “strand displacement loop at full occupancy of the target” value in assay [2] is on record as 90-100 bases. Also, the “average size of the loop” value in assay [2] (standard error 17 bp) is listed as 114 bp. For the same substance, the “transcription elongation by RNA polymerase T3” value in assay [3] is “effectively blocked”.
